Patent US20250034212A1, “PEPTIDE” (PEPTIDREAM INC., priority 2021, published 2025)
Starred links: 1 amine or outer side, 2 acyl side, 3 side chain; linkers in the order of their positions; H or OH if unused. Positions of bridges follow the written chain, without caps; N, C: chain ends. Non-standard residues stand in square brackets, D forms with d. Residues, ends and D or L forms follow the SMILES beside them. Groups on a side chain read outwards from the residue. *: point of attachment. Meglumine = CN(C[C@H](O)[C@@H](O)[C@H](O)[C@H](O)CO)*; Trp(7-aza) = N[C@@H](Cc1c[nH]c2ncccc12)C(=O)O; Piperazinyl(4-CH2COOH) = O=C(O)CN1CCN(*)CC1; 1Nal = N[C@@H](Cc1cccc2ccccc12)C(=O)O; Gly(NCH2CH2Ph) = O=C(O)CNCCc1ccccc1; 4Pal = N[C@@H](Cc1ccncc1)C(=O)O; CO = O=C([*:1])[*:2]

Biological target: T1, recombinant human TGF-β1 (Homo sapiens, UniProt P01137)
T1 construct: purchased R&D systems
Experiment: SBE reporter assay in SBE reporter-HEK293 cells, TGF-β1 stimulation
Type: cell-based
Conditions: TGF-β1 0.13 nM, 18 hours; for inhibition at 75 pM: peptide 0.075 nM; for inhibition at 0.00075 µM: peptide 0.75 nM; for inhibition at 0.0075 µM: peptide 7.5 nM; for inhibition at 0.075 µM: peptide 75.0 nM
From the text: The inhibitory activity of the peptide can be calculated without limitation while the maximum signal induced by TGF-β is set to 0% inhibition and no stimulation is set to 100% inhibition. When the peptide is used at an appropriate concentration, for example, at the optimal concentration, the inhibitory activity is not limited but the inhibition is 5% or more, 10% or more, 20% or more, 30% or more, 40% or more, 50% or more, 60% or more, 70% or more, 80% or more, or 90% or more.
In this Example, the TGF-β1 inhibitory activity of the peptide of the present invention consisting of the amino acid sequence set forth in SEQ ID NOs: 2-33 synthesized in Examples 1 to 5 and 7 was evaluated by an SBE reporter assay using the SBE reporter-HEK293 cell system (BP Bioscience) as follows.
SBE reporter-HEK293 cells were cultured in E-MEM (Wako) containing 10% FBS (Sigma). The cells were detached using Accutase (Innovative Cell Technologies), suspended in E-MEM containing 0.5% FBS, seeded onto a 96-well plate(s) at a concentration of 45,000 cells per well, and cultured overnight. The next day, the peptide was added and allowed to stand for 20 min, and recombinant human TGF-β1 (R&D systems) or recombinant human TGF-β2 (R&D systems) was then added at 0.13 nM and cultured for 18 hours.
Thereafter, luciferase assay ONE-Glo reagent was added to each well and the plate was shaken for 5 min. A SpectraMax Paradigm multimode microplate reader (Molecular Devices) was then used for signal detection. The obtained signals were analyzed by GraphPad Prism. The inhibitory activity of the peptide was calculated while the maximum signal induced by TGF-β was set to 0% inhibition and no stimulation was set to 100% inhibition.

T1 sequence (P01137 279-390 limits assumed): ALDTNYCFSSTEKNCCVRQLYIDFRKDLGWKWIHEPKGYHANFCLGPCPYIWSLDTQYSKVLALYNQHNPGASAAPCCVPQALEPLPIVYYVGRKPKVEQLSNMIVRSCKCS

| Compound | inhibition at 75 pM [%] | inhibition at 0.00075 µM [%] | inhibition at 0.0075 µM [%] | inhibition at 0.075 µM [%] | inhibition at 62 pM (peptide 0.062 nM) [%] | inhibition at 0.000185 µM (peptide 0.185 nM) [%] | inhibition at 0.00056 µM (peptide 0.56 nM) [%] | inhibition at 0.0017 µM (peptide 1.7 nM) [%] | inhibition at 0.005 µM (peptide 5.0 nM) [%] | inhibition at 0.015 µM (peptide 15.0 nM) [%] |
| --- | --- | --- | --- | --- | --- | --- | --- | --- | --- | --- |
| CC(C)[C@@H]1NC(=O)CN(CCc2ccccc2)C(=O)[C@H](CC(=O)O)NC(=O)[C@H](CC(=O)O)NC(=O)[C@H](Cc2ccncc2)NC(=O)[C@H](C(C)C)NC(=O)[C@H](CC(N)=O)NC(=O)[C@H](C(C)C)NC(=O)[C@H](C(C)C)NC(=O)[C@H](Cc2cccc3ccccc23)NC(=O)[C@H](Cc2ccccc2)NC(=O)CSC[C@@H](C(=O)NCC(N)=O)NC(=O)[C@H](CCCCNC(=O)N(C)C[C@H](O)[C@@H](O)[C@H](O)[C@H](O)CO)NC(=O)[C@H](Cc2c[nH]cn2)NC(=O)[C@H](Cc2ccc(O)cc2)NC(=O)[C@H](Cc2cccc3ccccc23)NC1=O [TGFb1_016] ({CH2CO}-F[1Nal]VVNV[4Pal]DD[Gly(NCH2CH2Ph)]V[1Nal]YHK([CO-Meglumine])CG-NH2; thioether N-16) | 6.1 | 61 | 97.6 | 100 | – | – | – | – | – | – |
| CC(C)[C@@H]1NC(=O)CN(CCc2ccccc2)C(=O)[C@H](CCCCNC(=O)N2CCN(CC(=O)O)CC2)NC(=O)[C@H](CC(=O)O)NC(=O)[C@H](Cc2ccncc2)NC(=O)[C@H](C(C)C)NC(=O)[C@H](CC(N)=O)NC(=O)[C@H](C(C)C)NC(=O)[C@H](C(C)C)NC(=O)[C@H](Cc2c[nH]c3ncccc23)NC(=O)[C@H](Cc2ccccc2)NC(=O)CSC[C@@H](C(=O)NCC(N)=O)NC(=O)[C@H](C(C)C)NC(=O)[C@H](Cc2c[nH]cn2)NC(=O)[C@H](Cc2ccc(O)cc2)NC(=O)[C@H](Cc2cccc3ccccc23)NC1=O [TGFb1_017] ({CH2CO}-F[Trp(7-aza)]VVNV[4Pal]DK([CO-Piperazinyl(4-CH2COOH)])[Gly(NCH2CH2Ph)]V[1Nal]YHVCG-NH2; thioether N-16) | 21.7 | 60.2 | 97.2 | 100 | – | – | – | – | – | – |
| CC(C)[C@@H]1NC(=O)CN(CCc2ccccc2)C(=O)[C@H](CCCCNC(=O)N(C)C[C@H](O)[C@@H](O)[C@H](O)[C@H](O)CO)NC(=O)[C@H](CC(=O)O)NC(=O)[C@H](Cc2ccncc2)NC(=O)[C@H](C(C)C)NC(=O)[C@H](CC(N)=O)NC(=O)[C@H](C(C)C)NC(=O)[C@H](C(C)C)NC(=O)[C@H](Cc2c[nH]c3ncccc23)NC(=O)[C@H](Cc2ccccc2)NC(=O)CSC[C@@H](C(=O)NCC(N)=O)NC(=O)[C@H](C(C)C)NC(=O)[C@H](Cc2c[nH]cn2)NC(=O)[C@H](Cc2ccc(O)cc2)NC(=O)[C@H](Cc2cccc3ccccc23)NC1=O [TGFb1_018] ({CH2CO}-F[Trp(7-aza)]VVNV[4Pal]DK([CO-Meglumine])[Gly(NCH2CH2Ph)]V[1Nal]YHVCG-NH2; thioether N-16) | 22.2 | 61 | 97.6 | 99.9 | – | – | – | – | – | – |
| CC(C)[C@@H]1NC(=O)CN(CCc2ccccc2)C(=O)[C@H](CCC(=O)O)NC(=O)[C@H](CC(=O)O)NC(=O)[C@H](Cc2ccncc2)NC(=O)[C@H](C(C)C)NC(=O)[C@H](CC(N)=O)NC(=O)[C@H](C(C)C)NC(=O)[C@H](C(C)C)NC(=O)[C@H](Cc2cccc3ccccc23)NC(=O)[C@H](Cc2ccccc2)NC(=O)CSC[C@@H](C(=O)NCC(N)=O)NC(=O)[C@H](CCCCNC(=O)N2CCN(CC(=O)O)CC2)NC(=O)[C@H](Cc2c[nH]cn2)NC(=O)[C@H](Cc2ccc(O)cc2)NC(=O)[C@H](Cc2cccc3ccccc23)NC1=O [TGFb1_021] ({CH2CO}-F[1Nal]VVNV[4Pal]DE[Gly(NCH2CH2Ph)]V[1Nal]YHK([CO-Piperazinyl(4-CH2COOH)])CG-NH2; thioether N-16) | – | – | – | – | 10.2 | 26.9 | 58.9 | 87.8 | 97.1 | 98.8 |
